Test results: patent US5700779A (Cortech, Inc., priority 1996, dated 1997)
Where no end group is shown, it is not given here. [ ]: non-standard residue; d: D form. Oic = O=C(O)[C@@H]1C[C@@H]2CCCC[C@@H]2N1; Hyp = O=C(O)[C@@H]1C[C@@H](O)CN1; dTic = O=C(O)[C@H]1Cc2ccccc2CN1; 2Thi = N[C@@H](Cc1cccs1)C(=O)O

Assays:
[1] = target: T1, bradykinin type 2 (BK2) receptors (Rattus norvegicus, UniProt P25023); assay: standard rat uterus pA2 assay (in vitro B2 antagonist activity); conditions: for % Recovery: recovery of agonist response after washing 40 minutes following highest antagonist concentration; for activity in rat uterus functional tissue assay: summary of Table 1; for B2 pA2 (Rat Uterus): antagonist preincubated for 15 minutes
T1 construct: Uterine horns were removed, placed under a 1 g resting tension in 4 mL tissue baths; from tissue; host or cells: rat uterine horns (Sprague-Dawley, stilbesterol-pretreated)
T1 sequence (P25023 1-396): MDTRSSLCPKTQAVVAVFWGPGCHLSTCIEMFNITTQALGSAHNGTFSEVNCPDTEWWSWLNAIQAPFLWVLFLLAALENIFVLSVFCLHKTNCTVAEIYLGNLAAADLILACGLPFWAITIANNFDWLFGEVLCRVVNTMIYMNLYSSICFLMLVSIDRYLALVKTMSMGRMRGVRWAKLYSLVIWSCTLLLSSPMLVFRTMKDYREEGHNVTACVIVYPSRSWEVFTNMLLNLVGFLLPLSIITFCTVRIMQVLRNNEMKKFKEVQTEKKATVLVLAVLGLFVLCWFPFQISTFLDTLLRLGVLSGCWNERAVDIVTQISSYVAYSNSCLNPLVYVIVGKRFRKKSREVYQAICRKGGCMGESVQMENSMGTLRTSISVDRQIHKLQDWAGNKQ
Description: The standard rat uterus pA2 assay was conducted as follows:
Female Sprague-Dawley rats (200-250 g) were pretreated with stilbesterol (100 μg/kg) and killed 18 hours later by a blow on the head and exsanguinated. Uterine horns were removed, placed under a 1 g resting tension in 4 mL tissue baths containing De Jalon's solution at 31° C. and aerated. […] Antagonist potency was calculated according to the method of Arunlakshana and Schild (Arunlakshana, O., Schild, H. O., Br. J. Pharmacology 14 48-58 (1959)). […] The difference in pD2 values compared to concurrent control reflected the "percentage recovery" of agonist response.

[2] = target: T2, bradykinin type 1 (BK1) receptors (Oryctolagus cuniculus, UniProt P48748); assay: rabbit aorta in vitro B1 antagonist activity; conditions: reversal of des-Arg9-bradykinin contraction of rabbit aorta strips
T2 construct: Spiral strips were mounted under 2 g resting tension in 5 mL tissue baths; from tissue; host or cells: rabbit thoracic aorta spiral strips (New Zealand White)
T2 sequence (P48748 1-352): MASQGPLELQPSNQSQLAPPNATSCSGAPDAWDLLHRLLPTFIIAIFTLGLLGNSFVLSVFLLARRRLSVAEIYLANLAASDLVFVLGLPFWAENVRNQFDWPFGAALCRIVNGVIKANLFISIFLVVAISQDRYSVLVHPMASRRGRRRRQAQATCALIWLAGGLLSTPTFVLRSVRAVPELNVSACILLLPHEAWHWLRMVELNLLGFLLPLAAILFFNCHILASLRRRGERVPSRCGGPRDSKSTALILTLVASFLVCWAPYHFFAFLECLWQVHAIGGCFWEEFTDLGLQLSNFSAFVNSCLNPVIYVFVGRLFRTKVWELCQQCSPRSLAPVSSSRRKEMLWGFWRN
Description: Female New Zealand White rabbits were killed by overdose of pentobarbital (80 mg/kg i.v.) and the thoracic aorta removed. […] Two concentration-effect curves for des-Arg^9 -bradykinin were constructed at 1 and 3 hours. At five hours des-Arg^9 -bradykinin was added to the bath to a final concentration of […]. This produced stable, sustained and prolonged contractions of up to 45 minutes.

in vitro = conditions: pig, lung membranes, pH 7.2
Description: (§1) Rat or porcine lung and kidney cortical membranes were prepared using differential centrifugation as described by Skidgel (Booth, A. G. et al., Biochemical Journal 142, 575-581 (1974)) for lung or by Booth (Erdos, E. G. et al., Biochemical Pharmacology 33 3471-3478 (1984)) for kidney. Membrane preparations were stored at -20° C. […] Ten microliters of this working solution were delivered into a series of Eppendorf tubes, followed by human or guinea pig plasma (90 μL) or PBS as a control blank, and incubated for various time periods. At each time point the reaction was quenched with the addition of 100 μL 1N HCl in either acetonitrile or ethanol. Samples were allowed to stand approximately fifteen minutes and were then spun at 14,000 rpm for 10 minutes. Supernatant fractions were removed, filtered through 0.22 μM filters (Millipore) and analyzed by HPLC (C18, 12-80% acetonitrile in water, both containing 0.1% trifluoroacetic acid, monitoring at 214 nm.
(§2) Porcine kidney lung preparations were diluted 1:10 with PBS; rat kidney preparations were diluted 1:100 with PBS; porcine lung preparations were diluted 1:1 in PBS. […] At various time points the reactions were quenched by the addition of 100 μL of ethanol, centrifuged and analyzed by HPLC as described above. The half-life for the disappearance of the HPLC peak was determined using the computer program ENZFIT (Elsevier).

[3] = target: T3, bradykinin type 2 (BK2) receptors (Cavia porcellus, UniProt O70526); assay: antagonist binding to guinea pig ileum (tritium labeled bradykinin)
T3 construct: from tissue; host or cells: guinea pig ileum membrane preparation (Hartley strain)
T3 sequence (O70526 1-372): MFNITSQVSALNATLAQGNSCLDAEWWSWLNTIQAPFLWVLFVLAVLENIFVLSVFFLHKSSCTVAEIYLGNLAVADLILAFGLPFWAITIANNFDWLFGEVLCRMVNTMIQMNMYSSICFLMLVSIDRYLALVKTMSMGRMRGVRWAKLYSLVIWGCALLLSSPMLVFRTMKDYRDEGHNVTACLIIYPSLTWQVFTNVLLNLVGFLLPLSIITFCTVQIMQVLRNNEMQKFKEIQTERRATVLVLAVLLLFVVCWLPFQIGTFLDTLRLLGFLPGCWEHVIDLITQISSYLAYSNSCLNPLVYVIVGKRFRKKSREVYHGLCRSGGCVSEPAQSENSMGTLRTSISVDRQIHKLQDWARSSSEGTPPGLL
Description: Radioactivity was determined by liquid scintillation counting.

[4] = stability in porcine kidney cortical membranes; type: in vitro ADME; conditions: pig, pH 7.2, porcine kidney preparation
Description: as §1, §2

Substance	% Recovery [1] [%]	activity in rat uterus functional tissue assay [1]	also measured
D-Arg-Arg-Hyp-Hyp-Gly-Thi-Ser-D-Tic-NChg-Arg [Compound 17]	60	highly potent antagonists	
D-Arg-Arg-Pro-Hyp-Gly-Thi-Ser-D-Cpg-NChg-Arg [Compound 10]	75		
D-Arg-Arg-Pro-Hyp-Gly-Thi-Ser-D-NBng-NChg-Arg [Compound 7]		agonists	B2 pA2 (Rat Uterus) [1]: Agonist
D-Arg-Arg-Pro-Hyp-Gly-Thi-Ser-D-NBng-Oic-Arg [Compound 6]	93		
D-Arg-Arg-Pro-Hyp-Gly-Thi-Ser-D-Phe-NChg-Arg [Compound 9]	87		
D-Arg-Arg-Pro-Hyp-Gly-Thi-Ser-D-Phe-NPhg-Arg [Compound 16]	60		
D-Arg-Arg-Pro-Hyp-Gly-Thi-Ser-D-Tic-NCpg-Arg [Compound 8]	56	highly potent antagonists	
D-Arg-Arg-Pro-Hyp-Gly-Thi-Ser-D-Tic-NPhg-Arg [Compound 15]	54	highly potent antagonists	
D-Arg-Arg-Pro-Hyp-Gly-Thi-Ser-D-Tic-Oic-Arg [HOE-140, reference compound]	41		B1 (Rabbit Aorta) [2]: Inactive
D-Arg-Arg-Pro-Hyp-Gly-Thi-Ser-DTic-NChg [Compound 2]	0		
D-Arg-Arg-Pro-Hyp-Gly-Thi-Ser-Igl*-NChg-Arg [Compound 3]	100		
D-Arg-Arg-Pro-Hyp-Gly-Thi-Ser-Igl*-NChg-Arg [Compound 4]		agonists	B2 pA2 (Rat Uterus) [1]: Agonist
D-Arg-Arg-Pro-Hyp-Gly-Thi-Ser-NBng-Oic [Compound 1]	32		
D-Arg-Arg-Pro-Hyp-Gly-Thi-Ser-NPeg-Oic-Arg [Compound 11]		agonists	B2 pA2 (Rat Uterus) [1]: Agonist
RPPGFSPFR [Bradykinin, Arg^1 -Pro^2 -Pro^3 -Gly^4 -Phe^5 -Ser^6 -Pro^7 -Phe^8 -Arg^9]			half-life at 100 µM (in vitro): 3 min; Ki [3]: 0.0301 nM; half-life at 100 µM [4]: 3 min
[dR]RP[Hyp]GGS[dTic][Oic]R [CP-0601, reference compound]	75		
[dR]RP[Hyp][2Thi]GS[dTic][Oic]R [CP-0589, reference compound]	57		
δ-Gpa-Arg-Pro-Hyp-Gly-Thi-Ser-D-Tic-NChg-Arg [Compound 13]	66	highly potent antagonists	
δ-Gpa-Pro-Hyp-Gly-Thi-Ser-D-Tic-NChg-Arg [Compound 14]	81		
